Assay results: patent US20250034125A1, “COMPOUNDS AND USES THEREOF” (JANSSEN PHARMACEUTICA NV, priority 2019, published 2025)
Like-named read-outs stand apart in the source and are kept apart here.

How the values were obtained:
[1] = target: T1, SCD1 (Homo sapiens, UniProt O00767); assay: Growth inhibition of yeast (ole1Δ) expressing human SCD1 as the sole desaturase; assay type: cell-based
T1 construct: host or cells: Saccharomyces cerevisiae ole1Δ strain (W303 pdr1Δ pdr3Δ background), plasmid pRS316, TDH3 promoter
T1 sequence (O00767 1-359): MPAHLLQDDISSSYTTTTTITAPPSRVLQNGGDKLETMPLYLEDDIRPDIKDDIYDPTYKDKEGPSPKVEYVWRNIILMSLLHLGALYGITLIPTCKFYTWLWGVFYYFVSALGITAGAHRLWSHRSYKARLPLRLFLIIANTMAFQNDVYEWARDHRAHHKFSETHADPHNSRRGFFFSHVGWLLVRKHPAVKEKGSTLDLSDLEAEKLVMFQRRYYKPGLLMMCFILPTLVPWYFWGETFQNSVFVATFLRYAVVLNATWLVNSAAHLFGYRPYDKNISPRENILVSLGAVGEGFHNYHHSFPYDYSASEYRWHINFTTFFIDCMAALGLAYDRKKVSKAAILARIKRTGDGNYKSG

[2] = target: T2, SCD5 (Homo sapiens, UniProt Q86SK9); assay: Growth inhibition of yeast (ole1Δ) expressing human SCD5 as the sole desaturase; assay type: cell-based
T2 construct: host or cells: Saccharomyces cerevisiae ole1Δ strain (W303 pdr1Δ pdr3Δ background), plasmid pRS316, TDH3 promoter
T2 sequence (Q86SK9 1-330): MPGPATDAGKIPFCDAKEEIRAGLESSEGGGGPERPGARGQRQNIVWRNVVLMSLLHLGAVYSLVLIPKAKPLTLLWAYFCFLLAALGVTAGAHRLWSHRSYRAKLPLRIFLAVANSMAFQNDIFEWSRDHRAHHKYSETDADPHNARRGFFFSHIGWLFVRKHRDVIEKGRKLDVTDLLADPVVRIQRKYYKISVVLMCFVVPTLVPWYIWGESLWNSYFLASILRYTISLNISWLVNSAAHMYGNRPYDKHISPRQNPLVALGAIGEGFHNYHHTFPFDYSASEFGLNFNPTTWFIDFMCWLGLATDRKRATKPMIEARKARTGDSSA

[3] = yeast strain with SCD1 plasmid, OD600 growth read at 40 h, read-out: SCD1 IC50
[4] = yeast strain with SCD5 plasmid, OD600 growth read at 40 h, read-out: SCD5 IC50

| Compound | IC50 [1, 3] [nM] | IC50 [2, 4] [nM] | also measured |
| --- | --- | --- | --- |
| Cn1nc(NC(=O)N2CCC(Oc3cc(F)ccc3Cl)CC2)ccc1=O [Compound 82, 4-(2-chloro-5-fluorophenoxy)-N-(1-methyl-6-oxo-1,6-dihydropyridazin-3-yl)piperidine-1-carboxamide] | 50 | 20 | – |
| Cn1nc(NC(=O)N2CCC(Oc3ccc(F)cc3Cl)CC2)ccc1=O [Compound 83, 4-(2-chloro-4-fluorophenoxy)-N-(1-methyl-6-oxo-1,6-dihydropyridazin-3-yl)piperidine-1-carboxamide] | 4360 | 6210 | – |
| Cn1nc(NC(=O)N2CCC(Oc3cccc(F)c3C(F)(F)F)CC2)ccc1=O [Compound 84] | 430 | 170 | – |
| Cn1nc(NC(=O)N2CCC(Oc3ccc(F)cc3C(F)(F)F)CC2)ccc1=O [Compound 85] | 80 | 50 | – |
| Cn1nc(NC(=O)N2CCC(Oc3cc(F)ccc3C(F)(F)F)CC2)ccc1=O [Compound 86, 4-(5-fluoro-2-(trifluoromethyl)phenoxy)-N-(1-methyl-6-oxo-1,6-dihydropyridazin-3-yl)piperidine-1-carboxamide] | 10 | 10 | – |
| Cn1nc(NC(=O)N2CCC(Oc3cccc(C#N)c3Cl)CC2)ccc1=O [Compound 87, 4-(2-chloro-3-cyanophenoxy)-N-(1-methyl-6-oxo-1,6-dihydropyridazin-3-yl)piperidine-1-carboxamide] | > 45000 | > 45000 | – |
| Cn1nc(NC(=O)N2CCC(Oc3ccc(C(F)(F)F)c(F)c3)CC2)ccc1=O [Compound 88, 4-(3-fluoro-4-(trifluoromethyl)phenoxy)-N-(1-methyl-6-oxo-1,6-dihydropyridazin-3-yl)piperidine-1-carboxamide] | 70 | 30 | – |
| Cn1nc(NC(=O)N2CCC(Oc3cc(F)c(F)c(Cl)c3)CC2)ccc1=O [Compound 89, 4-(3-chloro-4,5-difluorophenoxy)-N-(1-methyl-6-oxo-1,6-dihydropyridazin-3-yl)piperidine-1-carboxamide] | 260 | 60 | – |
| Cn1nc(NC(=O)N2CCC(Oc3cc(F)c(F)c(C#N)c3)CC2)ccc1=O [Compound 90, 4-(3-cyano-4,5-difluorophenoxy)-N-(1-methyl-6-oxo-1,6-dihydropyridazin-3-yl)piperidine-1-carboxamide] | 10300 | 7180 | – |
| Cn1nc(NC(=O)N2CCC(Nc3ccccc3C(F)(F)F)CC2)ccc1=O [Compound 92, N-(1-methyl-6-oxo-1,6-dihydropyridazin-3-yl)-4-(2-(trifluoromethyl)phenylamino) piperidine-1-carboxamide] | 2400 | 390 | – |
| Cn1nc(NC(=O)N2CCC(Nc3cc(F)cc(Cl)c3)CC2)ccc1=O [Compound 93, 4-((3-chloro-5-fluorophenyl)amino)-N-(1-methyl-6-oxo-1,6-dihydropyridazin-3-yl)piperidine-1-carboxamide] | – | – | IC50 [1]: > 45000 nM; IC50 [2]: 15000 nM |
| Cn1nc(NC(=O)N2CCC(Nc3cc(F)cc(F)c3)CC2)ccc1=O [Compound 94, 4-((3,5-difluorophenyl)amino)-N-(1-methyl-6-oxo-1,6-dihydropyridazin-3-yl)piperidine-1-carboxamide] | – | – | IC50 [1]: > 45000 nM; IC50 [2]: > 45000 nM |
| CN(c1cc(F)cc(F)c1)C1CCN(C(=O)Nc2ccc(=O)n(C)n2)CC1 [Compound 95] | > 45000 | 12000 | – |
| Cn1nc(NC(=O)N2CCC(OCc3cccc(F)c3)CC2)ccc1=O [Compound 96, 4-(3-fluorobenzyloxy)-N-(1-methyl-6-oxo-1,6-dihydropyridazin-3-yl)piperidine-1-carboxamide] | > 45000 | 26400 | – |
| Cn1nc(NC(=O)N2CCC(OCc3ccccc3F)CC2)ccc1=O [Compound 97, 4-(2-fluorobenzyloxy)-N-(1-methyl-6-oxo-1,6-dihydropyridazin-3-yl)piperidine-1-carboxamide] | > 45000 | 26100 | – |
| Cn1nc(NC(=O)N2CCC(COc3ccccc3Cl)CC2)ccc1=O [Compound 98, 4-((2-chlorophenoxy)methyl)-N-(1-methyl-6-oxo-1,6-dihydropyridazin-3-yl)piperidine-1-carboxamide] | 5180 | 1350 | – |
| Cn1nc(NC(=O)N2CCC(COc3ccccc3F)CC2)ccc1=O [Compound 99, 4-((2-fluorophenoxy)methyl)-N-(1-methyl-6-oxo-1,6-dihydropyridazin-3-yl)piperidine-1-carboxamide] | 32500 | 6870 | – |

| Compound | IC50 [1, 3] [nM] | IC50 [2, 4] [nM] | also measured |
| --- | --- | --- | --- |
| Cn1nc(NC(=O)N2CCC(COc3ccccc3C(F)(F)F)CC2)ccc1=O [Compound 100, N-(1-methyl-6-oxo-1,6-dihydropyridazin-3-yl)-4-((2-(trifluoromethyl)phenoxy)methyl)piperidine-1-carboxamide] | 4490 | 220 | – |
| Cn1nc(NC(=O)N2CCC(COc3cccc(F)c3)CC2)ccc1=O [Compound 101, 4-((3-fluorophenoxy)methyl)-N-(1-methyl-6-oxo-1,6-dihydropyridazin-3-yl)piperidine-1-carboxamide] | – | – | IC50 ([1]; read-out: SCD1 IC50): > 45000 nM; IC50 ([2]; read-out: SCD5 IC50): > 45000 nM |
| Cn1nc(NC(=O)N2CCC(NCc3cc(F)cc(F)c3)CC2)ccc1=O [Compound 104, 4-(3,5-difluorobenzylamino)-N-(1-methyl-6-oxo-1,6-dihydropyridazin-3-yl)piperidine-1-carboxamide] | > 45000 | > 45000 | – |
| Cn1nc(NC(=O)N2CCC(NCc3ccccc3C(F)(F)F)CC2)ccc1=O [Compound 105, N-(1-methyl-6-oxo-1,6-dihydropyridazin-3-yl)-4-(2-(trifluoromethyl)benzylamino) piperidine-1-carboxamide] | > 45000 | > 45000 | – |
| Cn1nc(OC(=O)N2CCC(Oc3ccc(F)c(F)c3)CC2)ccc1=O [Compound 107] | > 45000 | 7930 | – |
| Cn1nc(OC(=O)N2CCC(Oc3cc(F)cc(F)c3)CC2)ccc1=O [Compound 108] | 9000 | 5010 | – |
| Cn1nc(OC(=O)N2CCC(Cc3cc(F)cc(F)c3)CC2)ccc1=O [Compound 109] | > 45000 | 4850 | – |
| Cn1nc(-c2nc(N3CCC(Oc4cc(F)cc(F)c4)CC3)no2)ccc1=O [Compound 111, 6-(3-(4-(3,5-difluorophenoxy)piperidin-1-yl)-1,2,4-oxadiazol-5-yl)-2-methylpyridazin-3(2H)-one] | > 45000 | 610 | – |
| Cn1nc(-c2nc(N3CCC(Oc4cccc(F)c4Cl)CC3)no2)ccc1=O [Compound 112, 6-(3-(4-(2-chloro-3-fluorophenoxy)piperidin-1-yl)-1,2,4-oxadiazol-5-yl)-2-methylpyridazin-3(2H)-one] | 500 | 600 | – |
| Cn1nc(-c2nc(N3CCC(Cc4ccccc4)CC3)no2)ccc1=O [Compound 113, 6-(3-(4-benzylpiperidin-1-yl)-1,2,4-oxadiazol-5-yl)-2-methylpyridazin-3(2H)-one] | > 45000 | 380 | – |
| Cn1nc(-c2nc(N3CCC(Cc4cc(F)cc(F)c4)CC3)no2)ccc1=O [Compound 115, 6-(3-(4-(3,5-difluorobenzyl)piperidin-1-yl)-1,2,4-oxadiazol-5-yl)-2-methylpyridazin-3(2H)-one] | 450 | 10 | – |
| Cn1nc(-c2nc(N3CCC(Cc4ccc(F)c(F)c4)CC3)no2)ccc1=O [Compound 116, 6-(3-(4-(3,4-difluorobenzyl)piperidin-1-yl)-1,2,4-oxadiazol-5-yl)-2-methylpyridazin-3(2H)-one] | 860 | 10 | – |
| Cn1nc(-c2nc(N3CCC(Cc4cc(Cl)cc(C#N)c4)CC3)no2)ccc1=O [Compound 117, 3-chloro-5-((1-(5-(1-methyl-6-oxo-1,6-dihydropyridazin-3-yl)-1,2,4-oxadiazol-3-yl)piperidin-4-yl)methyl)benzonitrile] | 2000 | 30 | – |
| Cn1nc(-c2nnc(N3CCC(Cc4cc(F)cc(F)c4)CC3)o2)ccc1=O [Compound 118, 6-(5-(4-(3,5-difluorobenzyl)piperidin-1-yl)-1,3,4-oxadiazol-2-yl)-2-methylpyridazin-3(2H)-one] | 26300 | 70 | – |
| Cn1nc(-c2nnc(N3CCC(Cc4cccc(F)c4)CC3)o2)ccc1=O [Compound 119, 6-(5-(4-(3-fluorobenzyl)piperidin-1-yl)-1,3,4-oxadiazol-2-yl)-2-methylpyridazin-3(2H)-one] | > 45000 | 160 | – |
| Cn1nc(-c2nnc(N3CCC(Cc4cc(F)cc(F)c4)CC3)s2)ccc1=O [Compound 121, 6-(5-(4-(3,5-difluorobenzyl)piperidin-1-yl)-1,3,4-thiadiazol-2-yl)-2-methylpyridazin-3(2H)-one] | 180 | 10 | – |
